#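 Interpolation was linear, between the two tested concentrations surrounding the appropriate level; five concentrations were tested over 48 hours in 96-well plates. At the GI50, growth is halved.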 Calls of active or inactive are those of the source. No stated cut-off is given here; in the data, active = GI50 up to about 1.1 µM and inactive = higher.
# What was measured:
# Experiment in all cases: inhibition of tumour cell growth, NCI panel, 48 h
# [1] = system: HCC 2998
# [2] = system: M14
# [3] = system: LOX IMVI
# [4] = system: OVCAR-5
# [5] = system: Malme-3M
# [6] = system: SK-MEL-5
# [7] = system: OVCAR-4
# [8] = system: HCT-15
# [9] = system: HL-60
# [10] = system: U-251
# [11] = system: UO-31
# [12] = system: ACHN
# [13] = system: MCF7
# [14] = system: SF-539
# [15] = system: RXF 393
# [16] = system: MDA-MB-231
# [17] = system: A498
# [18] = system: IGROV-1
# [19] = system: MOLT-4
# [20] = system: SK-MEL-2
structure (smiles),measurement,setting,value
SCc1ccc(-c2ccc(CS)cc2)cc1,GI50,[1],15.6 µM (inactive)
same,GI50,[2],14.3 µM (inactive)
same,GI50,[3],4 µM (inactive)
same,GI50,[4],12.3 µM (inactive)
same,GI50,[5],16.9 µM (inactive)
same,GI50,[6],15.6 µM (inactive)
same,GI50,[7],6.38 µM (inactive)
same,GI50,[8],17.6 µM
same,GI50,[9],3.25 µM (inactive)
same,GI50,[10],15.1 µM (inactive)
same,GI50,[11],18.4 µM (inactive)
same,GI50,[12],18.7 µM (inactive)
same,GI50,[13],5.32 µM (inactive)
same,GI50,[14],18 µM (inactive)
same,GI50,[15],16.8 µM (inactive)
same,GI50,[16],11.2 µM (inactive)
same,GI50,[17],36.5 µM (inactive)
same,GI50,[18],13.5 µM (inactive)
same,GI50,[19],2.14 µM (inactive)
same,GI50,[20],19.7 µM (inactive)
